Test results from patent publication US20200017496A1 (priority 2017, published 2020).
Like-named read-outs stand apart in the source and are kept apart here.

Columns and labels:
[1] = test system: Klebsiella pneumoniae (KPN) isolates; test: MIC of compounds alone and combined with antibacterials, broth microdilution (CLSI); type: cell-based; details: Klebsiella pneumoniae, read-out: MIC
In short: (§1)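 Inoculum 5·10^5 CFU/mL (final), log phase, ca-MHB; 16-20 h, 35° C, ambient air. MIC = lowest conc. with no visible growth; ATB MIC read at each compound level.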

[2] = test system: Citrobacter freundii (CFR) isolates; test: as above; type: cell-based; details: for MIC: Citrobacter freundii, read-out: MIC
In short: as §1

C=CC1=C(C(=O)O)N2C(=O)[C@@H](NC(=O)/C(=N\OCC(=O)O)c3csc(N)n3)[C@H]2SC1 [FIX, Cefixime]
MIC ([1]; strain KPN UFR81 (TEM-1, SHV-1, DHA-1, OXA-48), CLA @ 4 μg/ml+ ATB): > 128 µg/mL
MIC ([1]; strain KPN UFR215 (SHV-27, CTX-M-15), ATB alone): > 128 µg/mL
MIC ([1]; strain KPN UFR215 (SHV-27, CTX-M-15), CLA @ 4 μg/ml+ ATB): 1 µg/mL
MIC ([1]; strain KPN UFR216 (SHV-28, CTX-M-15), ATB alone): > 128 µg/mL
MIC ([1]; strain KPN UFR216 (SHV-28, CTX-M-15), CLA @ 4 μg/ml+ ATB): ≤ 0.25 µg/mL
MIC ([1]; strain KPN UFR217 (TEM-1, SHV-1, CTX-M-15), ATB alone): > 128 µg/mL
MIC ([1]; strain KPN UFR217 (TEM-1, SHV-1, CTX-M-15), CLA @ 4 μg/ml+ ATB): ≤ 0.25 µg/mL
MIC ([1]; strain KPN UFR219 (SHV-12, CTX-M-15), ATB alone): > 128 µg/mL
MIC ([1]; strain KPN UFR219 (SHV-12, CTX-M-15), CLA @ 4 μg/ml+ ATB): 0.5 µg/mL
MIC ([1]; strain KPN UFR220 (TEM-1, SHV-12, DHA-1), ATB alone): > 128 µg/mL
MIC ([1]; strain KPN UFR220 (TEM-1, SHV-12, DHA-1), CLA @ 4 μg/ml+ ATB): > 128 µg/mL
MIC ([1]; strain KPN UFR221 (TEM-1, SHV-11, CTX-M-14, DHA-1), ATB alone): 64 µg/mL
MIC ([1]; strain KPN UFR221 (TEM-1, SHV-11, CTX-M-14, DHA-1), CLA @ 4 μg/ml+ ATB): 128 µg/mL
MIC ([1]; strain KPN UFR222 (DHA-2), ATB alone): > 128 µg/mL
MIC ([1]; strain KPN UFR222 (DHA-2), CLA @ 4 μg/ml+ ATB): > 128 µg/mL
MIC ([1]; strain KPN UFR227O (TEM-x, SHV-x, CTX-M-x), ATB alone): > 128 µg/mL
MIC ([1]; strain KPN UFR227O (TEM-x, SHV-x, CTX-M-x), CLA @ 4 μg/ml+ ATB): > 128 µg/mL
MIC ATB in combination [2]: >128 µg/mL
MIC ATB in combination ([2]; CFR UFR10, AF1 @ 4 μg/mL): <=0.25 μg/mL
MIC ATB in combination ([2]; CFR UFR10, AF1 @ 8 μg/mL): <=0.25 μg/mL
MIC ATB in combination ([2]; CFR UFR11, AF1 @ 4 μg/mL): 8 µg/mL
MIC ATB in combination ([2]; CFR UFR11, AF1 @ 8 μg/mL): 4 µg/mL
MIC ATB in combination ([2]; CFR UFR83, AF1 @ 8 μg/mL): 128 µg/mL
MIC ATB in combination ([2]; CFR UFR146, AF1 @ 4 μg/mL): 1 µg/mL
MIC ATB in combination ([2]; CFR UFR146, AF1 @ 8 μg/mL): 1 µg/mL
MIC ATB in combination ([2]; CFR UFR248, AF1 @ 4 μg/mL): <=0.25 μg/mL
MIC ATB in combination ([2]; CFR UFR248, AF1 @ 8 μg/mL): <=0.25 μg/mL
MIC ATB in combination ([2]; CFR UFR249, AF1 @ 4 μg/mL): <=0.25 μg/mL
MIC ATB in combination ([2]; CFR UFR249, AF1 @ 8 μg/mL): <=0.25 μg/mL
MIC ATB in combination ([2]; CFR UFR250, AF1 @ 4 μg/mL): <=0.25 μg/mL
MIC ATB in combination ([2]; CFR UFR250, AF1 @ 8 μg/mL): <=0.25 μg/mL
MIC ([2]; ATB alone, strain CFR UFR253 (TEM-1, SHV-12, OXA-48)): > 128 µg/mL
MIC ([2]; ATB alone, strain CFR UFR254 (VEB-1b, OXA-48, qnrA)): 32 µg/mL
MIC ([2]; ATB combined with CLA @ 4 μg/ml, strain CFR UFR253 (TEM-1, SHV-12, OXA-48)): > 128 µg/mL
MIC ([2]; ATB combined with CLA @ 4 μg/ml, strain CFR UFR254 (VEB-1b, OXA-48, qnrA)): 16 µg/mL
MIC ([2]; CFR UFR250, alone): > 128 µg/mL
MIC ([2]; strain CFR UFR10 (OXA-48), ATB alone): > 128 µg/mL
MIC ([2]; strain CFR UFR10 (OXA-48), CLA @ 4 μg/ml+ ATB): 32 µg/mL
MIC ([2]; strain CFR UFR11 (TEM-1, OXA-1, OXA-48), ATB alone): 32 µg/mL
MIC ([2]; strain CFR UFR11 (TEM-1, OXA-1, OXA-48), CLA @ 4 μg/ml+ ATB): 32 µg/mL
MIC ([2]; strain CFR UFR83 (TEM-3, AmpC), ATB alone): > 128 µg/mL
MIC ([2]; strain CFR UFR83 (TEM-3, AmpC), CLA @ 4 μg/ml+ ATB): > 128 µg/mL
MIC ([2]; strain CFR UFR146 (TEM-1, KPC-2), ATB alone): 64 µg/mL
MIC ([2]; strain CFR UFR146 (TEM-1, KPC-2), CLA @ 4 μg/ml+ ATB): 64 µg/mL
MIC ([2]; strain CFR UFR248 (CTX-M-15), ATB alone): > 128 µg/mL
MIC ([2]; strain CFR UFR248 (CTX-M-15), CLA @ 4 μg/ml+ ATB): 4 µg/mL
MIC ([2]; strain CFR UFR249 (TEM-1, CTX-M-15), ATB alone): > 128 µg/mL
MIC ([2]; strain CFR UFR249 (TEM-1, CTX-M-15), CLA @ 4 μg/ml+ ATB): 2 µg/mL
MIC ([2]; strain CFR UFR250 (TEM-1, SHV-28, CTX-M-15), ATB alone): > 128 µg/mL
MIC ([2]; strain CFR UFR250 (TEM-1, SHV-28, CTX-M-15), CLA @ 4 μg/ml+ ATB): 2 µg/mL
MIC ATB in combination ([2]; strain CFR UFR253, antibacterial combined with AF1 @ 4 μg/mL): 32 µg/mL
MIC ATB in combination ([2]; strain CFR UFR253, antibacterial combined with AF1 @ 8 μg/mL): 16 µg/mL
MIC ATB in combination ([2]; strain CFR UFR254, antibacterial combined with AF1 @ 4 μg/mL): 0.5 µg/mL
MIC ATB in combination ([2]; strain CFR UFR254, antibacterial combined with AF1 @ 8 μg/mL): <=0.25 μg/mL
